# Article PMC6070996 (Marine Drugs, 2018)
# How the values were obtained:
# small crustaceans = tested on: small crustaceans; parameters: method as in doi:10.2216/i0031-8884-35-6S-111.1, PMID 20405925, PMID 12662108; settings: cited from earlier work
# mice = settings: cited from earlier work
# PP1 = settings: cited from earlier work
# Chymotrypsin = settings: cited from earlier work; for IC50: read-out: chymotrypsin IC50
# trypsin = settings: cited from earlier work
# [1] = tested on: NCI H460 lung cancer cells; parameters: method as in PMID 18163584; settings: cited from earlier work
# [2] = tested on: neuro-2A neuroblastoma cells; parameters: method as in PMID 18163584; settings: cited from earlier work
# plasmin = settings: cited from earlier work
# isolated rat hepatocytes = tested on: isolated rat hepatocytes; parameters: method as in doi:10.2216/i0031-8884-35-6S-111.1; settings: cited from earlier work
# Daphnia magna = settings: compared with microcystin-LR; cited from earlier work
# [3] = target: α-chymotrypsin from bovine pancreas (Bos taurus, UniProt P00766); assay: chymotrypsin inhibition assay; type: biochemical; parameters: key to Enzyme Inhibition Chymotrypsin (activity class): - not active; */** small/medium activity; */** small/medium activity
# [4] = target: T1, trypsin from porcine pancreas (Sus scrofa, UniProt P00761); assay: trypsin inhibition assay; type: biochemical; parameters: key: - not active; */** small/medium activity; */** small/medium activity; settings: class symbols
# T1 construct: purchased Sigma-Aldrich T0303; host or cells: porcine pancreas
# [5] = target: T2, elastase from porcine pancreas (Sus scrofa, UniProt P00772); assay: elastase inhibition assay; type: biochemical; parameters: key: - not active; */** small/medium activity; */** small/medium activity; settings: highest concentration 45.4 μg/mL
# T2 construct: purchased Sigma-Aldrich E0258; host or cells: porcine pancreas
# Thrombin [6] = target: T3, Thrombin (Bos taurus, UniProt P00735); assay: thrombin inhibition assay; type: biochemical; parameters: key: - not active; */** small/medium activity; */** small/medium activity; settings: highest concentration 45.4 μg/mL
# T3 construct: purchased Sigma-Aldrich T4648
# [7] = target: T4, protein phosphatase 1 (PP1) (Oryctolagus cuniculus, UniProt P62139); assay: protein phosphatase 1 inhibition assay; type: biochemical; parameters: key: - not active; */** small/medium activity; */** small/medium activity; settings: highest concentration 45.4 μg/mL
# T4 construct: purchased England Biolabs, Hitchin, UK (New England Biolabs) 754S
# [8] = tested on: MCF-7 breast cancer cells; assay: MTT cytotoxicity assay; type: cell-based; settings: 24-h exposure, 0 to 500 μg/mL
# Method: For the test, two CPs were selected: Arg^2-containing CP962 and Tyr^2-containing CP985. MCF-7 breast cancer cells were seeded at 7.5 × 10^3 cells/100 μL in a 96-well plates and incubated at 37 °C, 5% CO2 for 24 h. The cells were then treated for a further 24 h with CP962 and CP985 (0 to 500 μg/mL). After 24 h, sterile-filtered 3-(4,5-dimethylthiazol-2-yl)-2,5-diphenyltetrazolium bromide solution (MTT; 1 mg/mL) was added to each well. After 4 h incubation at 37 °C in the dark, the MTT solution was removed and formazan crystals solubilized in DMSO. The plates were shaken for 20 min, in the dark, at room temperature and absorbance was measured at 560 nm (Synergy/HT, BIOTEK, Wnooski, VT, USA). For each CP, three independent experiments were carried out and each treatment consisted of six replicates per plate. Bar charts were used to represent the viability of MCF-7 cells treated with CP962 and CP985, compared to the control (i.e., untreated cells) that represented 100% cell viability.
# Elastase = target: Elastase; parameters: method as in doi:10.1021/np960649a; settings: cited from earlier work
# papain = tested on: papain; parameters: method as in doi:10.1021/np960649a; settings: cited from earlier work
# Thrombin [9] = target: T3, Thrombin; parameters: method as in doi:10.1021/np960649a; settings: cited from earlier work
# human kallikrein = tested on: human kallikrein; parameters: method as in PMID 20405925; settings: cited from earlier work
# factor XIa = tested on: factor XIa; parameters: method as in PMID 20405925; settings: cited from earlier work
# [10] = tested on: human hepatoma cell line Huh7; parameters: method as in PMID 27428998; settings: cited from earlier work
# [11] = tested on: zebrafish eleuthero-embryos; parameters: method as in PMID 24561424; settings: genes of DNA damage recognition and repair, circadian rhythm; cited from earlier work
# T4 sequence (P62139 whole entry): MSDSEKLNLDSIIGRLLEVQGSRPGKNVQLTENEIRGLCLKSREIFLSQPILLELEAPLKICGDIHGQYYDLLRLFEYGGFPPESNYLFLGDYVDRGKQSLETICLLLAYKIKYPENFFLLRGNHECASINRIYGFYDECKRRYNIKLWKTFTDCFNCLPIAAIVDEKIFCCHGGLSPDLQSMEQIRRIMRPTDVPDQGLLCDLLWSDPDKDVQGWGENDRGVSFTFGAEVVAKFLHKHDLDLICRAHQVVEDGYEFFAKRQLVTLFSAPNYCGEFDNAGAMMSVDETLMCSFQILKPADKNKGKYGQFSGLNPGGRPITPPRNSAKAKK
# T2 sequence (P00772 27-266): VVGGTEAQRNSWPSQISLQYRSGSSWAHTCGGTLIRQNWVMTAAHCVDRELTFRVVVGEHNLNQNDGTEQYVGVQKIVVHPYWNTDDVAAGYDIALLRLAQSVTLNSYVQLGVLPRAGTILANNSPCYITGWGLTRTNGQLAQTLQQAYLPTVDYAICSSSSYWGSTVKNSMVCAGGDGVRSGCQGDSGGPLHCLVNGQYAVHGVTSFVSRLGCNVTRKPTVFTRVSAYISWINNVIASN
# T1 sequence (P00761 9-231): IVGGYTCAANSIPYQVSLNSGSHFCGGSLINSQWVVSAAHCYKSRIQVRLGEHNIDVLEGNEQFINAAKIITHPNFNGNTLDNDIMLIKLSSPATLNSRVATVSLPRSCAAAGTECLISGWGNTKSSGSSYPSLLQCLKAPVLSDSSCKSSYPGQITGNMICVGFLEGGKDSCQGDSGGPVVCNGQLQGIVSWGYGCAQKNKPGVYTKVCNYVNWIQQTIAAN
compound,measurement,setting,value
Oscillapeptin J,acute effects in small crustaceans,small crustaceans,induced acute effects
same,harmful effects in mice,mice; administered intraperitoneally at concentrations up to 1000 µg/kg b.w.,did not induce any harmful effects
"CC[C@H](C)[C@H](NC(=O)[C@H](O)Cc1ccc(O)cc1)C(=O)N[C@@H](CCO)C(=O)N[C@@H]1C(=O)N[C@@H](CCO)C(=O)N[C@H]2CC[C@@H](O)N(C2=O)[C@@H](Cc2ccccc2)C(=O)N(C)[C@@H](Cc2ccc(O)cc2)C(=O)N[C@@H](C(C)C)C(=O)O[C@@H]1C [Nostocyclin, [Thr+Hse+Ahp+Phe+MeTyr+Val]Hse+Ile+Hpla]",activity against protein phosphatases,PP1; protein phosphatases,weak activity
same,IC50,PP1; read-out: Enzyme Inhibition PP1 IC50,64000 nM
same,toxicity in mouse bioassay,mice,not toxic
CCCC(=O)N[C@@H](CCC(N)=O)C(=O)N[C@@H]1C(=O)N[C@@H](CCCNC(N)=O)C(=O)N[C@H]2CC[C@@H](O)N(C2=O)[C@@H]([C@@H](C)CC)C(=O)N(C)[C@@H](Cc2ccc(OC)c(Br)c2)C(=O)N[C@@H](C(C)C)C(=O)O[C@@H]1C [Symplocamide A],IC50,Chymotrypsin,380 nM
same,IC50,trypsin,80200 nM
same,cytotoxic activity to NCI H460 lung cancer cells,[1],cytotoxic activity
same,cytotoxic activity to neuro-2A neuroblastoma cells,[2],cytotoxic activity
CC[C@H](C)[C@@H]1NC(=O)[C@H](Cc2ccccc2)N(C)C(=O)[C@H]([C@@H](C)CC)N2C(=O)[C@H](CC[C@H]2O)NC(=O)[C@H](CCCN=C(N)N)NC(=O)[C@@H](NC(=O)[C@@H](COS(=O)(=O)O)OS(=O)(=O)O)[C@@H](C)OC1=O [CP SS],inhibition of plasmin,plasmin,inhibited plasmin
same,toxicity to isolated rat hepatocytes,isolated rat hepatocytes,not toxic
same,acute effects in small crustaceans,small crustaceans,induced acute effects
same,toxicity against Daphnia magna,Daphnia magna,even higher than for microcystin-LR
"CCCC(=O)NC(CC(=O)O)C(=O)NC1C(=O)NC(Cc2ccc(O)cc2)C(=O)NC2CCC(O)N(C2=O)C(Cc2ccccc2)C(=O)N(C)C(Cc2ccc(O)cc2)C(=O)NC(C(C)C)C(=O)OC1C (stereo not shown) [CP 985, [Thr+Tyr+Ahp+Phe+MeTyr+Val]Asp+BA]",IC50,[3]; read-out: Enzyme Inhibition (IC50 [µM]) Chymotrypsin,0.26 µM
same,Enzyme Inhibition Trypsin (activity class),[4],-
same,Enzyme Inhibition Elastase (activity class),[5],-
same,Enzyme Inhibition Thrombin (activity class),Thrombin [6],-
same,Enzyme Inhibition Protein Phosphatase 1 (activity class),[7],-
same,cytotoxic effects on MCF-7 cells (MTT),[8],no cytotoxic effects
"CCCC(=O)NC(CC(=O)O)C(=O)NC1C(=O)NC(CCCNC(=N)N)C(=O)NC2CCC(O)N(C2=O)C(Cc2ccccc2)C(=O)N(C)C(Cc2ccccc2)C(=O)NC(C(C)C)C(=O)OC1C (stereo not shown) [CP 962, [Thr+Arg+Ahp+Phe+MePhe+Val]Asp+BA]",Enzyme Inhibition Chymotrypsin (activity class),[3]; class symbols,-
same,Enzyme Inhibition Trypsin (activity class),[4],**
same,Enzyme Inhibition Elastase (activity class),[5],-
same,Enzyme Inhibition Thrombin (activity class),Thrombin [6],-
same,Enzyme Inhibition Protein Phosphatase 1 (activity class),[7],-
same,cytotoxic effects on MCF-7 cells (MTT),[8],no cytotoxic effects
"CCCC(=O)N[C@@H](CCC(N)=O)C(=O)N1CC(C)C2OC(=O)[C@H]([C@@H](C)CC)NC(=O)[C@H](Cc3ccc(O)cc3)N(C)C(=O)[C@H]([C@@H](C)CC)N3C(=O)C(CCC3O)NC(=O)[C@H](CC(C)C)NC(=O)[C@H]21 (stereo partly shown) [Nostopeptin A, [Hmp+Leu+Ahp+Ile+MeTyr+Ile]Gln+BA]",Enzyme Inhibition Chymotrypsin IC50,Chymotrypsin,1.4 µg/mL
same,Enzyme Inhibition Elastase IC50,Elastase,1.3 µg/mL
same,activity against trypsin,trypsin,inactive
same,activity against plasmin,plasmin,inactive
same,activity against papain,papain,inactive
same,activity against thrombin,Thrombin [9],inactive
"CCCCCC(=O)N[C@@H](CC(=O)O)C(=O)N[C@@H]1C(=O)N[C@@H](CCCNC(=N)N)C(=O)N[C@H]2CC[C@@H](O)N(C2=O)[C@@H](Cc2ccccc2)C(=O)N(C)[C@@H](CCc2ccc(O)cc2)C(=O)N[C@@H](C(C)C)C(=O)O[C@@H]1C [CP 1020, [Thr+Arg+Ahp+Phe+MeHty+Val]Asp+HA]",Enzyme Inhibition Elastase (activity class),[5],-
same,Enzyme Inhibition Thrombin (activity class),Thrombin [6],-
same,Enzyme Inhibition Protein Phosphatase 1 (activity class),[7],-
same,activity against chymotrypsin,Chymotrypsin,active
same,inhibition of trypsin,trypsin,Picomolar inhibition
same,activity against plasmin,plasmin,active
same,activity against human kallikrein,human kallikrein,active
same,activity against factor XIa,factor XIa,active
same,acute effects in small crustaceans,small crustaceans,induced acute effects
"CCCCCC(=O)N[C@@H](CCC(=O)O)C(=O)N[C@@H]1C(=O)N[C@@H](CCCNC(=N)N)C(=O)N[C@H]2CC[C@@H](O)N(C2=O)[C@@H](Cc2ccccc2)C(=O)N(C)[C@@H](Cc2ccc(O)cc2)C(=O)N[C@@H](C(C)C)C(=O)O[C@@H]1C [CP1020, cyanopeptolin 1020]",anti-inflammatory effects in Huh7,[10],induction of anti-inflammatory effects
same,transcriptional alterations of genes in zebrafish eleuthero-embryos,[11],led to transcriptional alterations of genes
"CC[C@H](C)[C@@H]1NC(=O)[C@H](Cc2ccc(O)cc2)N(C)C(=O)[C@H]([C@@H](C)CC)N2C(=O)C(CCC2O)NC(=O)[C@H](CC(C)C)NC(=O)[C@@H]2C(OC1=O)C(C)CN2C(=O)[C@H](CCC(N)=O)NC(C)=O (stereo partly shown) [Nostopeptin B, [Hmp+Leu+Ahp+Ile+MeTyr+Ile]Gln+Ac]",Enzyme Inhibition Chymotrypsin IC50,Chymotrypsin,1.6 µg/mL
same,Enzyme Inhibition Elastase IC50,Elastase,11.0 µg/mL
same,activity against trypsin,trypsin,inactive
same,activity against plasmin,plasmin,inactive
same,activity against papain,papain,inactive
same,activity against thrombin,Thrombin [9],inactive
CC[C@H](C)[C@@H]1NC(=O)[C@H](Cc2ccc(O)cc2)N(C)C(=O)[C@H](Cc2ccccc2)N2C(=O)[C@H](CC[C@H]2O)NC(=O)[C@H](Cc2ccccc2)NC(=O)[C@@H](NC(=O)[C@@H](O)COP(=O)(O)O)[C@@H](C)OC1=O [micropeptin T20],IC50,Chymotrypsin,2.5 nM
